In ChEMBL document CHEMBL1121476, “Diaryl amidine derivatives as oncornaviral DNA polymerase inhibitors” (J Med Chem, 1980):
≈ marks a conversion by molar mass, not a printed value.

Legend:
[1] = biological target: Gag-Pol polyprotein (Moloney murine leukemia virus isolate Shinnick) (UniProt P03355)
Description: Inhibitory dose against oncornaviral DNA polymerase activity of moloney murine leukemia virus

Nucleic Acid = assay: Compound was evaluated for 50% inhibitory dose against oncornaviral DNA polymerase activity of moloney murine leukemia virus; type: functional

Row | Structure (SMILES) | ID50 [1] [mg/L] | ID50 (Nucleic Acid) [mg/L]
1 | N=C(N)c1ccc2[nH]c(/C=C/c3nc4cc(C(=N)N)ccc4[nH]3)nc2c1 | 100 (≈ 290 µM) | –
2 | C(/C=C/c1cc2cc(C3=NCCN3)ccc2o1)=C\c1ccc(C2=NCCN2)cc1 | 4 (≈ 10.5 µM) | –
3 | N=C(N)c1ccc2[nH]c(/C=C/c3cc4cc(C(=N)N)ccc4o3)cc2c1 | 1.4 (≈ 4.08 µM) | –
4 | N=C(N)Nc1ccc(-c2cc3cc(NC(=N)N)ccc3s2)cc1 | 11 (≈ 33.9 µM) | –
5 | N=C(N)c1ccc(/C=C/c2cc3cc(C(=N)N)ccc3o2)cc1 | 8 (≈ 26.3 µM) | –
6 | CC[n+]1c(-c2ccccc2)c2cc(N)ccc2c2ccc(N)cc21 | 1.2 | –
7 | N=C(N)c1ccc(-c2ccc(-c3ccc(C(=N)N)cc3)s2)cc1 | 1.2 (≈ 3.75 µM) | –
8 | N=C(N)c1ccc2cc(/C=C/c3cc4ccc(C(=N)N)cc4o3)oc2c1 | 1.6 (≈ 4.65 µM) | –
9 | N=C(N)c1ccc2oc(/C=C/c3cc4ccc(C(=N)N)cc4o3)cc2c1 | 1.2 (≈ 3.48 µM) | –
10 | N=C(N)c1ccc(/C=C/C=C/C=C/c2cc3cc(C(=N)N)ccc3o2)cc1 | 1.6 (≈ 4.49 µM) | –
11 | N=C(N)c1ccc(-c2c[nH]c(-c3ccc(C(=N)N)cc3)n2)cc1 | 10 (≈ 32.9 µM) | –
12 | N=C(N)c1ccc(Oc2ccc(/C=C/c3cc4ccc(C(=N)N)cc4[nH]3)cc2)cc1 | 1.4 (≈ 3.54 µM) | –
13 | N=C(N)c1ccc(-c2nnc(-c3ccc(C(=N)N)cc3)o2)cc1 | 28 (≈ 91.4 µM) | –
14 | N=C(N)Nc1ccc(-c2cc3cc(NC(=N)N)ccc3o2)cc1 | 8 (≈ 25.9 µM) | –
15 | N=C(N)c1ccc2oc(CCc3cc4cc(C(=N)N)ccc4o3)cc2c1 | 12 (≈ 34.6 µM) | –
16 | N=C(N)c1ccc2oc(-c3c[nH]c(-c4cc5cc(C(=N)N)ccc5o4)n3)cc2c1 | 2 (≈ 5.2 µM) | –
17 | N=C(N)c1cccc(Oc2ccc(-c3cc4ccc(C(=N)N)cc4[nH]3)cc2)c1 | 6 (≈ 16.2 µM) | –
18 | c1cc(-c2cc3ccc(C4=NCCN4)cc3s2)ccc1C1=NCCN1 | 1.2 (≈ 3.46 µM) | –
19 | c1cc(Oc2ccc(-c3cc4ccc(C5=NCCN5)cc4[nH]3)cc2)cc(C2=NCCN2)c1 | 3 (≈ 7.12 µM) | –
20 | O=C(Nc1ccc(C2=NCCN2)cc1)c1ccc(C(=O)Nc2ccc(C3=NCCN3)cc2)cc1 | 200 (≈ 442 µM) | –
21 | N=C(N)c1ccc(-c2ccc(-c3ccc(C(=N)N)cc3)o2)cc1 | 6 (≈ 19.7 µM) | –
22 | Cc1c(/C=C/c2oc3ccc(C(=N)N)cc3c2C)oc2ccc(C(=N)N)cc12 | 8 (≈ 21.5 µM) | –
23 | N=C(N)c1cccc(-c2cc3ccc(C(=N)N)cc3s2)c1 | 8 (≈ 27.2 µM) | –

Row | Structure (SMILES) | ID50 [1] [mg/L] | ID50 (Nucleic Acid) [mg/L]
24 | N=C(N)c1ccc(/N=N/Nc2ccc(C(=N)N)cc2)cc1 | – | 11 (≈ 39.1 µM)
25 | N=C(N)c1ccc(-c2ccc(-c3ccc(C(=N)N)cc3)[nH]2)cc1 | 6.5 (≈ 21.4 µM) | –
26 | C(=C\c1cc2ccc(C3=NCCN3)cc2[nH]1)/c1ccc(Oc2ccc(C3=NCCN3)cc2)cc1 | 1.6 (≈ 3.58 µM) | –
27 | N=C(N)c1ccc2oc(/C=C/c3cc4ccc(C(=N)N)cc4[nH]3)cc2c1 | 1.1 (≈ 3.2 µM) | –
28 | N=C(N)c1cccc(-c2cc3ccc(C(=N)N)cc3[nH]2)c1 | 8 (≈ 28.8 µM) | –
29 | N=C(N)c1ccc2oc(/C=C/C=C/c3cc4cc(C(=N)N)ccc4o3)cc2c1 | 3 (≈ 8.1 µM) | –
30 | N=C(N)c1cccc(-c2cc3cc(C(=N)N)ccc3s2)c1 | 6 (≈ 20.4 µM) | –
31 | N=C(N)c1ccc(N/N=N/c2ccc(-c3cc4cc(C(=N)N)ccc4o3)cc2)cc1 | 1.3 (≈ 3.27 µM) | –
32 | N=C(N)c1ccc(-c2cc3ccc(C(=N)N)cc3[nH]2)cc1 | 5 (≈ 18 µM) | –
33 | N=C(N)c1ccc2oc(/C=C/C=C/C=C/c3cc4cc(C(=N)N)ccc4o3)cc2c1 | 1.6 (≈ 4.04 µM) | –
34 | CN(C)/C=N/c1ccc(-c2cc3cc(/N=C/N(C)C)ccc3o2)cc1 | 40 (≈ 120 µM) | –
35 | N=C(N)c1ccc(-c2cc3ccc(C(=N)N)cc3s2)cc1 | 4 (≈ 13.6 µM) | –
36 | N=C(N)c1ccc(/C=C/c2cc3ccc(C(=N)N)cc3[nH]2)cc1 | 6 (≈ 19.8 µM) | –
37 | N=C(N)c1ccc(OCCCCCOc2ccc(C(=N)N)cc2)cc1 | 100 (≈ 294 µM) | –
38 | c1cc(C2=NCCN2)ccc1Oc1ccc(-c2cc3ccc(C4=NCCN4)cc3[nH]2)cc1 | 1.4 (≈ 3.32 µM) | –
39 | N=C(N)c1ccc2oc(-c3ccc(N)cc3)cc2c1 | 270 (≈ 1070 µM) | –
40 | N=C(N)c1ccc2oc(C(=O)Nc3ccc(C4=NCCN4)cc3)cc2c1 | 10 (≈ 28.8 µM) | –
41 | CCN(CC)CCOc1ccc2c(c1)C(=O)c1cc(OCCN(CC)CC)ccc1-2 | 75 (≈ 183 µM) | –
42 | C/C(=C\c1cc2cc(C(=N)N)ccc2o1)c1cc2cc(C(=N)N)ccc2o1 | 14 (≈ 39.1 µM) | –
43 | CC(Cc1cc2cc(C(=N)N)ccc2o1)c1cc2cc(C(=N)N)ccc2o1 (centres undefined) | 15 (≈ 41.6 µM) | –
44 | N=C(N)c1ccc2oc(/C=C/c3cc4cc(C(=N)N)ccc4s3)cc2c1 | 4 (≈ 11.1 µM) | –
45 | C(=C\c1cc2cc(C3=NCCN3)ccc2o1)/c1ccc(Oc2ccc(C3=NCCN3)cc2)cc1 | 9 (≈ 20.1 µM) | –
46 | C(/C=C/c1cc2cc(C3=NCCN3)ccc2o1)=C\c1cc2cc(C3=NCCN3)ccc2o1 | 1 (≈ 2.37 µM) | –

Row | Structure (SMILES) | ID50 [1] [mg/L] | ID50 (Nucleic Acid) [mg/L]
47 | C/C(=C\c1cc2cc(C(=N)N)ccc2o1)c1ccc(C(=N)N)cc1 | 4 (≈ 12.6 µM) | –
48 | N=C(N)c1ccc(-c2[nH]c3cc(C(=N)N)ccc3c2N)cc1 | 12 (≈ 41 µM) | –
49 | N=C(N)c1ccc(-c2sc3ccc(C(=N)N)cc3c2N)cc1 | 8 (≈ 25.9 µM) | –
50 | N=C(N)c1ccc2cc(C(=N)N)[nH]c2c1 | 70 (≈ 348 µM) | –
51 | N=C(N)c1cccc(-c2cc3cc(C(=N)N)ccc3[nH]2)c1 | 4 (≈ 14.4 µM) | –
52 | N=C(N)c1ccc(Oc2ccc(/C=C/c3cc4cc(C(=N)N)ccc4o3)cc2)cc1 | 14 (≈ 35.3 µM) | –
53 | N=C(N)c1ccc(/C=C/C=C/c2cc3cc(C(=N)N)ccc3o2)cc1 | 0.9 (≈ 2.72 µM) | –
54 | N=C(N)c1ccc(CCc2cc3cc(C(=N)N)ccc3o2)cc1 | 120 (≈ 392 µM) | –
55 | N=C(N)c1ccc(Oc2ccc(-c3cc4ccc(C(=N)N)cc4[nH]3)cc2)cc1 | 250 (≈ 677 µM) | –
56 | c1cc(-c2cc3ccc(C4=NCCN4)cc3[nH]2)ccc1C1=NCCN1 | 6 (≈ 18.2 µM) | –
57 | c1cc(-c2cc3cc(C4=NCCN4)ccc3s2)ccc1C1=NCCN1 | 2.8 (≈ 8.08 µM) | –
58 | N=C(N)Nc1ccc(-c2cc3ccc(NC(=N)N)cc3s2)cc1 | 6 (≈ 18.5 µM) | –
59 | N=C(N)c1ccc(NC(=O)c2cc3cc(C(=N)N)ccc3o2)cc1 | 7.5 (≈ 23.3 µM) | –
60 | N=C(N)N/N=C/c1ccc2cc(-c3ccc(/C=N/N=C(N)N)cc3)sc2c1 | 2 (≈ 5.28 µM) | –
61 | N=C(N)c1ccc(C2Cc3cc(C(=N)N)ccc3S2(=O)=O)cc1 (centres undefined) | 90 (≈ 274 µM) | –
62 | N=C(N)c1ccc(N/N=C/c2cc3cc(C(=N)N)ccc3o2)cc1 | 7.5 (≈ 23.4 µM) | –
63 | N=C(N)c1ccc2c(c1)[nH]c1c3cc(C(=N)N)ccc3sc21 | 1.2 (≈ 3.9 µM) | –
64 | C(=C\c1cc2cc(C3=NCCN3)ccc2o1)/c1ccc(C2=NCCN2)cc1 | 6 (≈ 16.8 µM) | –
65 | N=C(N)c1ccc2[nH]c(-c3cc4cc(C(=N)N)ccc4o3)cc2c1 | 0.9 (≈ 2.84 µM) | –
66 | C(=C\c1cc2cc(C3=NCCN3)ccc2o1)/c1cc2cc(C3=NCCN3)ccc2o1 | 1.1 (≈ 2.77 µM) | –
67 | N=C(N)c1ccc(-c2cc3cc(C(=N)N)ccc3s2)cc1 | 5 (≈ 17 µM) | –
68 | N=C(N)c1ccc(/C=C/c2ccc(C(=N)N)cc2)cc1 | 12 (≈ 45.4 µM) | –
69 | N=C(N)c1ccc2sc(/C=C/c3cc4cc(C(=N)N)ccc4s3)cc2c1 | 11 (≈ 29.2 µM) | –
